Patent publication US20180370927A1, “MICROBIOCIDAL OXADIAZOLE DERIVATIVES” (SYNGENTA PARTICIPATIONS AG, priority 2015, published 2018)

Key:
[1] = system: Glomerella lacenarium (Colletotrichum lacenarium); test: Glomerella lacenarium (Colletotrichum lacenarium) liquid culture / cucumber / preventative (anthracnose); type: cell-based; settings: 20 ppm in the applied formulation, liquid culture in PDB, 24° C., 3 to 4 days after application, read-out: disease control (inhibition of growth, photometric) compared to untreated control
How it was run: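 At 20 ppm in the applied formulation, compounds were mixed with fungal spores in potato dextrose broth and held at 24° C. After 3–4 days, photometric growth measurement gave percent antifungal activity relative to untreated control.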

[2] = system: Phakopsora pachyrhizi; test: Phakopsora pachyrhizi / soybean / leaf disc preventative (Asian soybean rust); type: in vivo; settings: foliar, 200 ppm in the applied formulation, soybean leaf disks, assessed 12 to 14 days after application, read-out: disease control compared to untreated control leaf disks
How it was run: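 Soybean leaf discs on water agar were sprayed with formulated compound diluted in water, then inoculated one day later with spore suspension on the lower leaf surface. Held 24-36 h dark at 20° C., 75% RH, then 12 h light/day; percent disease control versus untreated scored 12 to 14 days after application.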

[3] = system: Puccinia recondita f. Sp. Tritici; test: Puccinia recondita f. sp. tritici / wheat / leaf disc preventative (brown rust); type: in vivo; settings: foliar, 200 ppm in the applied formulation, wheat leaf segments, preventative, assessed 7 to 9 days after application, read-out: disease control compared to untreated control leaf disks
How it was run: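 Wheat cv. Kanzler leaf segments on agar sprayed with formulated compound in water, inoculated with rust spores 1 day later. Incubated at 19° C, 75% rh, 12 h light/12 h dark; percent disease control versus untreated scored 7 to 9 days after application; tested at 200 ppm.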

[4] = system: Puccinia recondita f. Sp. Tritici; test: Puccinia recondita f. sp. tritici / wheat / leaf disc curative (brown rust); type: in vivo; settings: foliar, 200 ppm in the applied formulation, wheat leaf segments, curative (applied 1 day after inoculation), assessed 6 to 8 days after application, read-out: disease control compared to untreated control leaf disks
How it was run: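 Curative treatment: formulated compound in water was applied 1 day post-inoculation to spore-inoculated wheat cv. Kanzler segments held on agar. Segments stayed at 19° C and 75% relative humidity (12 h photoperiod after application), and disease control relative to untreated checks was assessed 6 to 8 days later.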

C=CCNC(=O)C(=O)N(Cc1ccc(-c2noc(C(F)(F)F)n2)cc1)OC [Compound 4.76, N-allyl-N′-methoxy-N′-[[4-[5-(trifluoromethyl)-1,2,4-oxadiazol-3-yl]phenyl]methyl] oxamide]
≥ 80%: inhibition at 20 ppm [1] | pest or weed control at 200 ppm [2] | pest or weed control at 200 ppm [3] | pest or weed control at 200 ppm [4]

CCON(Cc1ccc(-c2noc(C(F)(F)F)n2)cc1)C(=O)C(N)=O [Compound 4.86, N′-ethoxy-N′-[[4-[5-(trifluoromethyl)-1,2,4-oxadiazol-3-yl]phenyl]methyl] oxarnide]
≥ 80%: inhibition at 20 ppm [1] | pest or weed control at 200 ppm [2] | pest or weed control at 200 ppm [3] | pest or weed control at 200 ppm [4]

CCCN(Cc1ccc(-c2noc(C(F)(F)F)n2)cc1)C(=O)C(N)=O [Compound 4.88, N′-propyl-N′-[[4-[5-(trifluoromethyl)-1,2,4-oxadiazol-3-yl]phenyl]methyl] oxamide]
≥ 80%: inhibition at 20 ppm [1] | pest or weed control at 200 ppm [2] | pest or weed control at 200 ppm [3] | pest or weed control at 200 ppm [4]

CC(C)N(Cc1ccc(-c2noc(C(F)(F)F)n2)cc1)C(=O)C(N)=O [Compound 4.89, N′-isopropyl-N′-[[4-[5-(trifluoromethyl)-1,2,4-oxadiazol-3-yl]phenyl]methyl] oxamide]
≥ 80%: inhibition at 20 ppm [1] | pest or weed control at 200 ppm [2] | pest or weed control at 200 ppm [3] | pest or weed control at 200 ppm [4]

NC(=O)C(=O)N(Cc1ccc(-c2noc(C(F)(F)F)n2)cc1)C1COC1 [Compound 4.90, N′-(oxetan-3-yl)-N′-[[4-[5-(trifluoromethyl)-1,2,4-oxadiazol-3-yl]phenyl]methyl] oxamide]
≥ 80%: inhibition at 20 ppm [1] | pest or weed control at 200 ppm [2] | pest or weed control at 200 ppm [3] | pest or weed control at 200 ppm [4]

NC(=O)C(=O)N(O)Cc1ccc(-c2noc(C(F)(F)F)n2)cc1 [Compound 4.91, N′-hydroxy-N′-[[4-[5-(trifluoromethyl)-1,2,4-oxadiazol-3-yl]phenyl]methyl] oxamide]
≥ 80%: inhibition at 20 ppm [1] | pest or weed control at 200 ppm [2] | pest or weed control at 200 ppm [3] | pest or weed control at 200 ppm [4]

CN(C)C(=O)C(=O)NCc1ccc(-c2noc(C(F)(F)F)n2)cc1F [Compound 4.92, N-[[2-fluoro-4-[5-(trifluoromethyl)-1,2,4-oxadiazol-3-yl]phenyl]methyl]-N',N'-dimethyl-oxamide]
≥ 80%: inhibition at 20 ppm [1] | pest or weed control at 200 ppm [2] | pest or weed control at 200 ppm [3] | pest or weed control at 200 ppm [4]

CN(C)C(=O)C(=O)NCc1ccc(-c2noc(C(F)(F)F)n2)c(F)c1 [Compound 4.93, N-[[3-fluoro-4-[5-(trifluoromethyl)-1,2,4-oxadiazol-3-yl]phenyl]methyl]-N',N'-dimethyl-oxamide]
≥ 80%: inhibition at 20 ppm [1] | pest or weed control at 200 ppm [2] | pest or weed control at 200 ppm [3] | pest or weed control at 200 ppm [4]

CN(C)C(=O)C(=O)NCc1ccc(-c2noc(C(F)(F)F)n2)c(F)c1F [Compound 4.94, N-[[2,3-difluoro-4-[5-(trifluoromethyl)-1,2,4-oxadiazol-3-yl]phenyl]methyl]-N',N'-dimethyl-oxamide]
≥ 80%: inhibition at 20 ppm [1] | pest or weed control at 200 ppm [2] | pest or weed control at 200 ppm [3] | pest or weed control at 200 ppm [4]
